Where two headings read alike, the source gives them in different places.
Columns and labels:
[1] = Solubility in water
[2] = tested on: oAβ25–35-induced memory deficits in rats; assay: oAβ25–35-induced memory deficits in T-maze test in rats; assay type: in vivo, rat
Protocol: For the AD model, adult male Sprague–Dawley rats (Janvier Lab., France) weighing 260–280 g (8 weeks) at the beginning of the experiments were housed 1 week before experiments in a standard animal facility of the University of Montpellier (CECEMA, registration number E34-172-23) (12/12 h light/dark cycle with lights on at 07:00; 21 ± 1 °C, food and water ad libitum). All experiments, including sacrifices, were performed in conscious rats between 09:00 and 12:00, during the diurnal period of the circadian rhythm. Male has been preferred over female because the latter may present a confounding factor of the estrous cycle, a parameter that needs to be systematically controlled. Animal procedures were conducted in strict adherence to the European Union Directive of 2010 (2010/63/EU). The National French Animal Welfare Committee and the local committee at the University of Montpellier approved all protocols (authorization: CEEA-LR-12160). All efforts were made to minimize the number of animals used, potential pain, suffering, and distress.
As previously detailed,[37],[64] to induce the acute model of AD (oAβ25–35 model), rats were divided into three groups. One group had no surgery (Naive group), a second set of animals received an intracerebroventricular (icv) injection of incubated scrambled peptide (negative control groups—10 μg/rat—Sc), and a third set received an icv injection of oAβ25–35 (AD groups—10 μg/rat—Aβ). The animals were anesthetized with an intraperitoneal (ip) injection of a mixture of ketamine and xylazine (80 and 10 mg/kg b.w., respectively). Scrambled peptide and oAβ25–35 were injected directly into the lateral ventricles at a rate of 2 μL/min using a David-Kopf stereotaxic apparatus (coordinates of injection: AP −1 mm, L ±1.5 mm, DV −3.5 mm).
1—A curative approach: This treatment was started 1 week after the induction of amyloid toxicity (icv injection of oAβ25–35) and consisted of 2 ip injections (1.5 mg/kg per injection) per day for 1 week. On day 14, animals were subjected to a behavioral memory test (T-maze) and sacrificed on day 15 by decapitation.
2—A preventive approach: This treatment was started at the same time as the induction of amyloid toxicity and consisted of implanting ip, and during the same anesthetic procedure necessary for the icv injection of oAβ25–35, an osmotic pump (Alzet-EML2, Charles-River, France) which continuously delivered the molecules for 1 week at the dose of 3 mg/kg/day. On day 7, animals were submitted to a behavioral memory test (T-maze) and sacrificed on day 8 by decapitation.
As previously reported, the T-maze test was used to rapidly assess cognitive ability in rats, especially the short-term memory deficits, when performed in two successive sessions.[37],[38],[64],[65] The T-maze consisted of two short arms (A and B), extending from a longer alley (C) and enclosed with high walls. The test involved two trials, separated by 1 h. During the training session, one short arm (B) was closed. Rats were placed at the end of the long alley, allowed to visit the maze for 10 min, and then returned to their home cage. […] The number of visits and time spent in each arm were measured. The results were expressed as the ratio of the time spent in the initially closed novel arm, over the time spent in the previous arm, and as a ratio of the number of entries into the novel arm over the familiar one. […]

[3] = molecular target: T1, 5-HT2CR (Homo sapiens, UniProt P28335); assay: 5-HT2CR binding ([3H]-mesulergine), Eurofins; settings: read-out: serotonin 5-HT2C % inhibition at 1 microM
T1 sequence (P28335 33-458): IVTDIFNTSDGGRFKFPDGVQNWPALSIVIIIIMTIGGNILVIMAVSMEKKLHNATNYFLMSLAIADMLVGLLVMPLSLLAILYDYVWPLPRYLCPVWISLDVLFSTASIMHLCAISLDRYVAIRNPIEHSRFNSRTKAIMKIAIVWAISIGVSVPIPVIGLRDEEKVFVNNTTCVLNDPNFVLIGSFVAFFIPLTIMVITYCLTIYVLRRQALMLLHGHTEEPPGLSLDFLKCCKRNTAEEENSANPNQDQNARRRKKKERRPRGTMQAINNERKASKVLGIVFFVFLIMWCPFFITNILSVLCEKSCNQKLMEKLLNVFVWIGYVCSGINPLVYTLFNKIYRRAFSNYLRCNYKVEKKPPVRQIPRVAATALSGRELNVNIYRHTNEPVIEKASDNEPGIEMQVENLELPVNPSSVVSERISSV
From the text: (§1) The results were expressed as the %
(§2) www.eurofinsdiscovery.com.

[4] = molecular target: T2, 5-HT3R (Cavia porcellus, UniProt O70212); assay: Ex vivo guinea pig ileum contractility, serotonin-induced; settings: 15 min incubation
T2 construct: from tissue; host or cells: guinea pig ileum
T2 sequence (O70212 20-490): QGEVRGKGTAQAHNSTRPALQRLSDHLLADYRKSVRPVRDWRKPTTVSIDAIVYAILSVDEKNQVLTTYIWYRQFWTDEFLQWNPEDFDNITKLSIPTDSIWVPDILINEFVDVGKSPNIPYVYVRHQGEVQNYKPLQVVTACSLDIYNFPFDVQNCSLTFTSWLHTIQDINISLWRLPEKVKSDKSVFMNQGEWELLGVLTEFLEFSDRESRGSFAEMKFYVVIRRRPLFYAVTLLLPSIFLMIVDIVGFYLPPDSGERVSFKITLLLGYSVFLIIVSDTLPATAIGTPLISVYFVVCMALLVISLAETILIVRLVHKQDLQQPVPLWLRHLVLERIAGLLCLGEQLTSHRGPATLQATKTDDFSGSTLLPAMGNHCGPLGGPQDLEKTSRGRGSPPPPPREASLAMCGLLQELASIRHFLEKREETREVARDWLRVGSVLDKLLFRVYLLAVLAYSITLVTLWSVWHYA

[5] = molecular target: T3, human 5-HT7b (Homo sapiens, UniProt P34969); assay: 5-HT7R binding ([3H]-5-CT), HEK293; settings: read-out: serotonin 5-HT7 % inhibition at 1 microM
T3 construct: expressed in transfected cells
Protocol: 3. Selectivity screen of PZ-1922
For membrane preparation,
EDTA and 1 mM dithiothreitol.
The composition of the assay buffers was
reader (PerkinElmer, USA).
as §1, §2

[6] = Preliminary pharmacokinetics in male Wistar rats, plasma and brain; assay type: in vivo; settings: rat; for MRT: read-out: MRT mean residence time (converted)
[7] = molecular target: serotonin transporter SERT (Homo sapiens, UniProt P31645); assay: SERT binding ([3H]-imipramine), Eurofins
From the text: as §1, §2

[8] = male, Wistar, po, 3 mg/kg intragastric, plasma
[9] = male, Wistar, 3 mg/kg intravenous, plasma

T3 sequence (P34969 1-432 limits assumed): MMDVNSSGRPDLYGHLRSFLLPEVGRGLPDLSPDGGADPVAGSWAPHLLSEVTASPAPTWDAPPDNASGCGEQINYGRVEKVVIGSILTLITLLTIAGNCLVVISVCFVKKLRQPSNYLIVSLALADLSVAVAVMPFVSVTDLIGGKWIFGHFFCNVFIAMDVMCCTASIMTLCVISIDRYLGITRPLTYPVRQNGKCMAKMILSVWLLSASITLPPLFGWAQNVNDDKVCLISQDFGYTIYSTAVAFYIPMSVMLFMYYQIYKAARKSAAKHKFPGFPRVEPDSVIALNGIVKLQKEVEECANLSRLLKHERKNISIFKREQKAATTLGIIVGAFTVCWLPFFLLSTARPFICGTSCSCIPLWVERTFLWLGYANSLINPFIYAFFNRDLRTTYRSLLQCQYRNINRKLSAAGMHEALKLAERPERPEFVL
Chain of serotonin transporter SERT (P31645 whole entry): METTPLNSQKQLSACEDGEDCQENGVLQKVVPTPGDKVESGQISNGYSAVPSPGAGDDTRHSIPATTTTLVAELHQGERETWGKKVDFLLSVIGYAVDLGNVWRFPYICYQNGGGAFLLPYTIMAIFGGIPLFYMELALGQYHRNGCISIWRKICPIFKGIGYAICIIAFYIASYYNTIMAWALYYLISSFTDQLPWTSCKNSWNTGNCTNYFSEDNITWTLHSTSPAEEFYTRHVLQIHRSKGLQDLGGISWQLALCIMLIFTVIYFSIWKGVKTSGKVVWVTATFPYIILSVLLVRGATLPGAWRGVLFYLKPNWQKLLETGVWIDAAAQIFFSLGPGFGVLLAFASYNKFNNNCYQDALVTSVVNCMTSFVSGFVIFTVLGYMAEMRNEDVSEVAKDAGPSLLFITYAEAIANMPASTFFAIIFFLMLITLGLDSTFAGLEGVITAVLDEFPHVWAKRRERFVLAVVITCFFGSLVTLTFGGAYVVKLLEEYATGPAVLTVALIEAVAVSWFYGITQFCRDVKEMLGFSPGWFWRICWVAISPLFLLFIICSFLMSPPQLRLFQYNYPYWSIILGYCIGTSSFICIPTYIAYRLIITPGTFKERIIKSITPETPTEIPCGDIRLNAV

With `Cl.Clc1cccc(Cn2ccc3c(N4CCNCC4)nc4ccccc4c32)c1` [PZ-1922, 1-(3-Chlorobenzyl)-4-(piperazin-1-yl)-1H-pyrrolo[3,2-c]quinoline Hydrochloride] the solubility [1] was 325 mg/mL, the “effect on oAβ25–35-induced memory deficits in T-maze, curative treatment” value ([2]; 1.5 mg/kg ip twice a day for 7 days, started 1 week after icv oAβ25–35) was “effectively reversed the memory deficits” and the “effect on oAβ25–35-induced memory deficits in T-maze, preventive treatment” value ([2]; 3 mg/kg/day by ip osmotic pump for 1 week, concomitant with icv oAβ25–35) was “prevented the emergence of cognitive deficits”. The “In vivo effective dose, T maze test in rats after oAB administration, preventive treatment” value ([2]; preventive treatment) was 3 mg/kg, the inhibition at 1 µM [3] was 4% and the “pD2' antagonism at 5-HT3R” value [4] was 7.32. The “pD2' antagonism at 5-HT3R” value ([4]; listed as 16 (PZ1922), 15 min) was 7,32, the inhibition at 1 µM [5] was 2% and the MRT ([6]; male, Wistar, po, 3 mg/kg intragastric, brain) was 4.58 h. The AUC(0-t) [6, 8] was 224 ng·h/mL, the Cmax [6, 8] was 38.6 ng/mL and the Tmax [6, 8] was 2 h. For the same molecule, the MRT [6, 8] was 3.93 h, the MRT ([6]; male, Wistar, 3 mg/kg intravenous, brain) was 2.83 h and the AUC(0-t) [6, 9] was 467 ng·h/mL. It also gave a clearance ([6]; male, Wistar, 3 mg/kg intravenous, plasma, read-out: Cl clearance) of 39.2 mL/min/kg, an MRT [6, 9] of 3.48 h and an AUC0→t ([6]; 3 mg/kg intragastric, brain) of 42186 ng·min/g. The AUC0→t ([6]; 3 mg/kg intravenous, brain) was 170827 ng·min/g and the inhibition at 1 µM [7] was 1.8%.

From paper PMC10641814 (Journal of Medicinal Chemistry, 2023)
